This note sets out measurements from patent publication US20180000085A1, “USE OF PICOLINAMIDE COMPOUNDS WITH FUNGICIDAL ACTIVITY” (DOW AGROSCIENCES LLC, priority 2014, published 2018).

In test [1] the test system is Zymoseptoria tritici. Nature of the test: Leaf blotch of wheat (SEPTTR) disease control on wheat seedlings. It counts as in vivo. The arrangement: key to SEPTTR 1DP, HV activity at 100 ppm (% control rating) / SEPTTR 3DC, HV activity at 100 ppm (% control rating) / SEPTTR disease control, 1DP / SEPTTR disease control, 3DC / SEPTTR 1DP disease control rating, HV activity / SEPTTR 3DC disease control rating, HV activity / SEPTTR 3DC, LV activity at 125.1 g/H (% Control rating) / SEPTTR 1DP, LV activity at 125.1 g/H (% Control rating) / SEPTTR 1DP disease control rating, LV activity at 125.1 g/H / SEPTTR 3DC disease control rating, LV activity at 125.1 g/H / SEPTTR 3DC disease control rating, HV activity at 100 ppm / SEPTTR 1DP disease control rating, HV activity at 100 ppm / HV activity at 100 ppm SEPTTR 3DC (disease control rating) / HV activity at 100 ppm SEPTTR 1DP (disease control rating) / LV activity at 125.1 g/H SEPTTR 1DP (disease control rating) / LV activity at 125.1 g/H SEPTTR 3DC (disease control rating): A: > 80; B: ≤ 80; C: Not Tested; D: No Activity Observed in the Reported Assay.

The test system of test [2] is Puccinia triticina. Briefly: Wheat brown rust (PUCCRT) disease control on wheat seedlings. The class given is in vivo.
Setting [3] is: low volume application, 125.1 g/H, 1 day protectant.
The mark [4] stands for this setting: low volume application, 125.1 g/H, 3 day curative.
The mark [5] stands for this setting: low volume application, 125.1 g/H, 1 Day Protectant.
Where [6] appears, read: low volume application, 125.1 g/H, 3 Day Curative.
[7] abbreviates: high volume application, 100 ppm, 1 day protectant.
Setting [8] is: high volume application, 100 ppm, 3 day curative.

As for `CCC(CC)[C@@H](Oc1cccc(Cl)c1)[C@H](C)OC(=O)[C@@H](NC(=O)c1nccc(OC)c1OC(C)=O)C(C)C` [Cmpd 658], the “SEPTTR 1DP disease control rating, LV activity at 125.1 g/H” value in test [1] (setting [3]) is on record as “D”. In test [1] (setting [4]), the “SEPTTR 3DC disease control rating, LV activity at 125.1 g/H” value is given as “B (≤ 80)”. In addition, in test [2] (setting [3]), the “PUCCRT 1DP disease control rating, LV activity at 125.1 g/H” value is listed as “A (> 80)”. Further, in test [2] (setting [4]), the “PUCCRT 3DC disease control rating, LV activity at 125.1 g/H” value is listed as “B (≤ 80)”.

For the compound `C=CC[C@@H](Oc1cc(F)cc(Cl)c1)[C@H](C)OC(=O)[C@H](C)NC(=O)c1nccc(OC)c1OC(C)=O` [Cmpd 1080], the “LV activity at 125.1 g/H SEPTTR 1DP (disease control rating)” value in test [1] (low volume application, 125.1 g/H, 1 Day Protectant, wheat leaf blotch) is on record as “B (≤ 80)”. For the same compound, in test [1] (low volume application, 125.1 g/H, 3 Day Curative, wheat leaf blotch), the “LV activity at 125.1 g/H SEPTTR 3DC (disease control rating)” value is on record as “B (≤ 80)”. Further, the “LV activity at 125.1 g/H PUCCRT 1DP (disease control rating)” value in test [2] (low volume application, 125.1 g/H, 1 Day Protectant, wheat brown rust) is recorded as “A (> 80)”. Also, the “LV activity at 125.1 g/H PUCCRT 3DC (disease control rating)” value in test [2] (low volume application, 125.1 g/H, 3 Day Curative, wheat brown rust) was “B (≤ 80)”.

For the compound `CCC(CCC(C)C)C(Oc1ccccc1)C(C)OC(=O)C(C)NC(=O)c1nccc(OC)c1O` (stereo not drawn) [Cmpd 317], in test [1] (HV application at 100 ppm, 1 Day Protectant, wheat leaf blotch), the “SEPTTR 1DP disease control rating, HV activity” value is given as “A (> 80)”. Also, the “SEPTTR 3DC disease control rating, HV activity” value in test [1] (HV application at 100 ppm, 3 Day Curative, wheat leaf blotch) is on record as “B (≤ 80)”. Besides, the “PUCCRT 1DP disease control rating, HV activity” value in test [2] (HV application at 100 ppm, 1 Day Protectant, wheat brown rust) is “A (> 80)”. The “PUCCRT 3DC disease control rating, HV activity” value in test [2] (HV application at 100 ppm, 3 Day Curative, wheat brown rust) was “B (≤ 80)”.

`COc1ccnc(C(=O)NC(C)C(=O)OC(C)COCc2ccccc2)c1OCOC(C)=O` (stereo not drawn) [Cmpd 520]: in test [1] (setting [5]), the “SEPTTR 1DP, LV activity at 125.1 g/H (% Control rating)” value (from here on “SEPTTR 1DP … (% Control rating)”) was “B (≤ 80)”. Besides, the “SEPTTR 3DC, LV activity at 125.1 g/H (% Control rating)” value (shortened to “SEPTTR 3DC … (% Control rating)”) in test [1] (setting [6]) is given as “D”. Further, the “PUCCRT 1DP, LV activity at 125.1 g/H (% Control rating)” value (“PUCCRT 1DP … (% Control rating)” below) in test [2] (setting [5]) is “B (≤ 80)”. Besides, the “PUCCRT 3DC, LV activity at 125.1 g/H (% Control rating)” value (from here on “PUCCRT 3DC … (% Control rating)”) in test [2] (setting [6]) is recorded as “B (≤ 80)”.

In the case of `CCC(CC)[C@@H](Oc1cccc(F)c1)[C@H](C)OC(=O)[C@H](C)NC(=O)c1nccc(OC)c1OCOC(C)=O` [Cmpd 586], the “SEPTTR 1DP … (% Control rating)” value in test [1] (setting [5]) is on record as “B (≤ 80)”. The “SEPTTR 3DC … (% Control rating)” value in test [1] (setting [6]) was “A (> 80)”. The “PUCCRT 1DP … (% Control rating)” value in test [2] (setting [5]) was “A (> 80)”. The “PUCCRT 3DC … (% Control rating)” value in test [2] (setting [6]) was “A (> 80)”.

For the compound `COc1ccnc(C(=O)N[C@@H](C)C(=O)O[C@@H](C)[C@H](OCC2CC2)C2CCCC2)c1O` [Cmpd 845, (S)-(1R,2S)-1-cyclopentyl-1-(cyclopropyl-methoxy)propan-2-yl-2-(3-hydroxy-4-methoxypicolinamido)propanoate], the “SEPTTR 1DP disease control rating, HV activity at 100 ppm” value in test [1] (setting [7]) was “B (≤ 80)”. The “SEPTTR 3DC disease control rating, HV activity at 100 ppm” value in test [1] (setting [8]) is listed as “B (≤ 80)”. Moreover, the “PUCCRT 1DP disease control rating, HV activity at 100 ppm” value in test [2] (setting [7]) is listed as “A (> 80)”. Also, the “PUCCRT 3DC disease control rating, HV activity at 100 ppm” value in test [2] (setting [8]) is given as “A (> 80)”.

On to `CCCO[C@@H](C1CC1)[C@@H](Oc1ccccc1)[C@H](C)OC(=O)[C@H](C)NC(=O)c1nccc(OC)c1OCOC(C)=O` [Cmpd 505], for which the “SEPTTR 1DP … (% Control rating)” value in test [1] (setting [5]) is listed as “B (≤ 80)”. Moreover, the “SEPTTR 3DC … (% Control rating)” value in test [1] (setting [6]) is given as “B (≤ 80)”. Moreover, the “PUCCRT 1DP … (% Control rating)” value in test [2] (setting [5]) is recorded as “A (> 80)”. In addition, the “PUCCRT 3DC … (% Control rating)” value in test [2] (setting [6]) is “A (> 80)”.

Take `CCC(CC)[C@@H](Oc1ccc(-c2ccccc2)cc1)[C@H](C)OC(=O)[C@H](C)NC(=O)c1nccc(OC)c1OC(C)=O` [Cmpd 607]: the “SEPTTR 1DP … (% Control rating)” value in test [1] (setting [5]) was “A (> 80)”. Besides, the “SEPTTR 3DC … (% Control rating)” value in test [1] (setting [6]) is “B (≤ 80)”. Further, the “PUCCRT 1DP … (% Control rating)” value in test [2] (setting [5]) is reported as “A (> 80)”. For the same compound, the “PUCCRT 3DC … (% Control rating)” value in test [2] (setting [6]) is listed as “B (≤ 80)”.

With `COc1ccnc(C(=O)NC(C)C(=O)OC(C)C(Oc2ccccc2)C2CCCCC2)c1OCOC(C)=O` (stereo not drawn) [Cmpd 907], the “SEPTTR 1DP disease control rating, LV activity at 125.1 g/H” value in test [1] (setting [3]) was “B (≤ 80)”. The “SEPTTR 3DC disease control rating, LV activity at 125.1 g/H” value in test [1] (setting [4]) was “B (≤ 80)”. Also, the “PUCCRT 1DP disease control rating, LV activity at 125.1 g/H” value in test [2] (setting [3]) is recorded as “A (> 80)”. Also, the “PUCCRT 3DC disease control rating, LV activity at 125.1 g/H” value in test [2] (setting [4]) is “B (≤ 80)”.
